In article PMC7155171, “Probing the Open Global Health Chemical Diversity Library for Multistage-Active Starting Points for Next-Generation Antimalarials” (ACS Infectious Diseases, 2020):

Legend:
[1] = system: HepG2-A16-CD81 hepatocytes; assay: HepG2 cytotoxicity screening (CellTiter-Glo); conditions: for HepG2 cytotoxicity 12pt dose response: Maximum inhibition (%): 12pt dose response
[2] = HepG2 cytotoxicity screening (CellTiter-Glo); conditions: human, uninfected HepG2-A16-CD81 (EGFP) hepatocytes
[3] = molecular target: recombinant firefly luciferase (Photinus pyralis, UniProt P08659); assay: biochemical; conditions: dose response; for IC50: read-out: rLuc inhibition dose response: IC50; for Emax: maximum inhibition, read-out: rLuc inhibition dose response: Maximum inhibition (%)
[4] = system: P. berghei liver stage (PbLuc); assay: P. berghei luciferase liver stage (PbLuc) assay in HepG2-A16-CD81 hepatocytes; assay type: cell-based, Plasmodium berghei; conditions: Plasmodium berghei; for IC50: HepG2-A16-CD81, 12pt dose response, read-out: PbLuc 12pt dose response: IC50; for Emax: HepG2-A16-CD81, 48 h, 12pt dose response, maximum inhibition

recombinant firefly luciferase, sequence (P08659 whole entry): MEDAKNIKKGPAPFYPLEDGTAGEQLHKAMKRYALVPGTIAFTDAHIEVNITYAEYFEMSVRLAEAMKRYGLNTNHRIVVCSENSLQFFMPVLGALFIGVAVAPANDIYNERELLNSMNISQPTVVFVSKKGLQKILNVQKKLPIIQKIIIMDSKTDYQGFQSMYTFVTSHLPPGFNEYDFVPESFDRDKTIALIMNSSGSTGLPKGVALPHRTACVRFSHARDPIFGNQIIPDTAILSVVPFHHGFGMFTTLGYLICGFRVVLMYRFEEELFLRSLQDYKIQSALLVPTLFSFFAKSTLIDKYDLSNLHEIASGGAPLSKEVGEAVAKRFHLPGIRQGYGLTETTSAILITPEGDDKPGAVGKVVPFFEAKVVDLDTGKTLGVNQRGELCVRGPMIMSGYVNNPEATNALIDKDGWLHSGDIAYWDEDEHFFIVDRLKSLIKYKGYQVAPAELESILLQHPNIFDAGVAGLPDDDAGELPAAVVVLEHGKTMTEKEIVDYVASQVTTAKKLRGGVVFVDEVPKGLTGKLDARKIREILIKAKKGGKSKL

With Cc1cccc(Nc2cc(C3CCCN(CC(N)=O)C3)ccn2)n1 (stereo not shown) [UCSD-0798772] the “HepG2 cytotoxicity 12pt dose response: Maximum inhibition (%)” value [1] was 3.72%, the IC50 [2] was over 25 µM and the inhibition at 2 µM [2] was 1.68%. For the same molecule, the IC50 [3] was over 8.33 µM, the IC50 [4] was under 0.000141 µM and the Emax [4] was 89.4%.

In the case of CCOc1ccc(CN2CCCC(c3cc4ncccc4[nH]3)C2)cc1 (stereo not shown) [UCSD-0798855], the “HepG2 cytotoxicity 12pt dose response: Maximum inhibition (%)” value [1] is reported as 11.6%, the IC50 [2] is reported as over 25 µM and the inhibition at 2 µM [2] is reported as 9.74%. It also gave an Emax [3] of 20.7%, an IC50 [3] of over 25 µM and an IC50 [4] of 5.76 µM. For the same molecule, the Emax [4] was 90.3%.

In the case of Fc1ccc(CN2CCCC(c3cc4ncccc4[nH]3)C2)cc1 (stereo not shown) [UCSD-0798856], the “HepG2 cytotoxicity 12pt dose response: Maximum inhibition (%)” value [1] is reported as -0.046%, the IC50 [2] is reported as over 25 µM and the inhibition at 2 µM [2] is reported as 12%. The Emax [3] was 23.6%, the IC50 [3] was over 25 µM and the IC50 [4] was 8.45 µM. It also gave an Emax [4] of 78.4%.

For Cn1cncc1CN1CCCC1c1cncc(Oc2ccc(Cl)cc2)n1 (stereo not shown) [UCSD-0800730], the “HepG2 Cytotoxicity primary screen (2uM): % Inhibition” value [1] was 0.83%, the “HepG2 cytotoxicity 12pt dose response: Maximum inhibition (%)” value [1] was 38.2% and the IC50 [2] was over 25 µM. It also gave an Emax [3] of 3.17%, an IC50 [3] of over 25 µM and an IC50 [4] of 12.9 µM. It also gave an Emax [4] of 92.6%.

For Cc1ncc(CN2CCOC(c3ccc(-c4ccccc4F)cn3)C2)s1 (stereo not shown) [UCSD-0800928], the “HepG2 Cytotoxicity primary screen (2uM): % Inhibition” value [1] was -6.23%, the “HepG2 cytotoxicity 12pt dose response: Maximum inhibition (%)” value [1] was 36.5% and the IC50 [2] was over 25 µM. For the same molecule, the Emax [3] was 19.3%, the IC50 [3] was over 25 µM and the IC50 [4] was 11.1 µM. For the same molecule, the Emax [4] was 85.7%.

For Cc1ccc(Nc2nccc(C3CCN(CC(N)=O)C3)n2)nc1 (stereo not shown) [UCSD-0800962], the “HepG2 cytotoxicity 12pt dose response: Maximum inhibition (%)” value [1] was 15.1%, the IC50 [2] was over 25 µM and the Emax [3] was 81.5%. The IC50 [3] was 0.0401 µM and the IC50 [4] was 0.00289 µM.

For COc1cc(C)c(CN2CCc3nc4ccsc4c(=O)n3CC2)cc1C [UCSD-0801369], the “HepG2 cytotoxicity 12pt dose response: Maximum inhibition (%)” value [1] was 25.1%, the IC50 [2] was over 25 µM and the inhibition at 2 µM [2] was 0%. It also gave an Emax [3] of 5.88%, an IC50 [3] of over 25 µM and an IC50 [4] of 8.88 µM. It also gave an Emax [4] of 95.5%.

With O=c1c2sccc2nc2n1CCN(Cc1ccccc1C(F)(F)F)CC2 [UCSD-0801403] the “HepG2 cytotoxicity 12pt dose response: Maximum inhibition (%)” value [1] was 19.7%, the IC50 [2] was over 25 µM and the inhibition at 2 µM [2] was 0%. It also gave an Emax [3] of 18.4%, an IC50 [3] of over 25 µM and an IC50 [4] of 6.77 µM. For the same molecule, the Emax [4] was 95.7%.

With CSc1ccc(CN2C[C@@H]3CC[C@@](O)(c4ccc(C)cn4)[C@@H]3C2)cc1 [UCSD-0801744] the “HepG2 cytotoxicity 12pt dose response: Maximum inhibition (%)” value [1] was 9.86%, the IC50 [2] was over 25 µM and the inhibition at 2 µM [2] was 2.45%. It also gave an Emax [3] of 38.3%, an IC50 [3] of over 25 µM and an IC50 [4] of 23 µM. For the same molecule, the Emax [4] was 66.8%.

With Clc1ccc(-c2ccc(C3CNCCO3)nc2)cc1 (stereo not shown) [UCSD-0802213] the “HepG2 cytotoxicity 12pt dose response: Maximum inhibition (%)” value [1] was -1.02%, the IC50 [2] was over 25 µM and the inhibition at 2 µM [2] was 18.1%. The Emax [3] was 95.9%, the IC50 [3] was 0.0623 µM and the IC50 [4] was under 0.000141 µM.

For COc1ccc(-c2ccc(C3CNCCO3)nc2)cc1 (stereo not shown) [UCSD-0802458], the “HepG2 cytotoxicity 12pt dose response: Maximum inhibition (%)” value [1] was -13.4%, the IC50 [2] was over 50 µM and the inhibition at 2 µM [2] was 23.7%. For the same molecule, the Emax [3] was 89.6%, the IC50 [3] was 0.0276 µM and the IC50 [4] was under 0.000141 µM. For the same molecule, the Emax [4] was 94%.

In the case of Cc1ccc(-c2ccc(C3CNCCO3)nc2)cc1 (stereo not shown) [UCSD-0802459], the “HepG2 cytotoxicity 12pt dose response: Maximum inhibition (%)” value [1] is reported as 48.6%, the IC50 [2] is reported as over 50 µM and the inhibition at 2 µM [2] is reported as 25.3%. For the same molecule, the Emax [3] was 88.3%, the IC50 [3] was 0.00428 µM and the IC50 [4] was under 0.000141 µM. The Emax [4] was 98.6%.

With Cc1cc(-c2cnc(NCc3cccnc3)nc2C(C)(C)C)on1 [UCSD-0802583] the “HepG2 Cytotoxicity primary screen (2uM): % Inhibition” value [1] was -8.43%, the “HepG2 cytotoxicity 12pt dose response: Maximum inhibition (%)” value [1] was 45.3% and the IC50 [2] was over 25 µM. For the same molecule, the Emax [3] was 6.14%, the IC50 [3] was over 25 µM and the IC50 [4] was 10.1 µM. The Emax [4] was 86.4%.

For CC(C)(C)OC(=O)N1CCCN(Cc2ccon2)c2ccccc21 [UCSD-0805052], the “HepG2 cytotoxicity 12pt dose response: Maximum inhibition (%)” value [1] was 13.5%, the IC50 [2] was over 25 µM and the inhibition at 2 µM [2] was 10.4%. The Emax [3] was 18.4%, the IC50 [3] was over 25 µM and the IC50 [4] was 8.56 µM. The Emax [4] was 93.5%.

For CCN1CC(CN(C)c2cc(C)nc(N)n2)Oc2ccccc21 (stereo not shown) [UCSD-0806866], the “HepG2 cytotoxicity 12pt dose response: Maximum inhibition (%)” value [1] was 73.7%, the IC50 [2] was 20.6 µM and the inhibition at 2 µM [2] was -3.08%. It also gave an Emax [3] of 15.4%, an IC50 [3] of over 25 µM and an IC50 [4] of 5.15 µM. The Emax [4] was 93.5%.

With COC(=O)CSCc1noc(-c2ccc(C)cc2)n1 [UCSD-0807935] the “HepG2 cytotoxicity 12pt dose response: Maximum inhibition (%)” value [1] was 3.73%, the IC50 [2] was over 25 µM and the inhibition at 2 µM [2] was -4.01%. For the same molecule, the Emax [3] was 62.8%, the IC50 [3] was over 25 µM and the IC50 [4] was 0.0335 µM. The Emax [4] was 77.1%.

For N#Cc1c(Cl)nsc1NCc1cccnc1OCC(F)(F)F [UCSD-0808444], the “HepG2 Cytotoxicity primary screen (2uM): % Inhibition” value [1] was 4.29%, the “HepG2 cytotoxicity 12pt dose response: Maximum inhibition (%)” value [1] was -0.683% and the IC50 [2] was over 25 µM. The Emax [3] was 43.9%, the IC50 [3] was over 25 µM and the IC50 [4] was 14.9 µM. For the same molecule, the Emax [4] was 69.5%.
